How the values were obtained:
[1] = target: human vasopressin V2 receptor (V2R) (Homo sapiens, UniProt P30518); test: arrestin-GFP localization (Fgrains) assay in U20S-V2R/ArrGFP cells, arginine vasopressin stimulated; format: cell-based; settings: 100 nM arginine vasopressin
Experimental: The assay was carried out using two different “double stable” human osteosarcoma cell (U20S) lines. […] The other cell line (U20S-V2R/ArrGFP) stably expressed V2R and the same arrestin-GFP conjugate.
The two cell lines (U20S-β2AR/ArrGFP and U20S-V2R/ArrGFP) were separately plated at 7000 cells/well on 384 well glass bottom plates. Two plates of U20S-β2AR/ArrGFP cells were prepared and two plates of U20S-V2R/ArrGFP cells were prepared.
Growth media was replaced with serum free media (i.e., Eagle's minimum essential medium (EMEM) buffered with 10 mM HEPES (N-2-Hydroxyethylpiperazine-N′-2-ethanesulfonic acid)) 24 hours after plating of the cells.
Each test compound was solvated using 100% dimethyl sulfoxide (DMSO). Multiple solutions of each compound were prepared at varying concentrations for testing in separate wells of each plate. If needed, the solutions were sonicated and heated to increase solubility. After preparation of the compound solutions, they were shielded from light.
Each of the solutions of varying concentrations of the fifteen compounds was added to a well on each of the four plates. The β2AR RT and V2R RT plates were incubated for 30 minutes at room temperature and atmospheric CO2.
Agonist was then added to each well. […] The β2AR RT and V2R RT plates were incubated for 30 minutes at room temperature and atmospheric CO2.
Each assay was then terminated using 1% paraformaldehyde containing 1 μM DRAQ5 DNA probe to fix the cells. The cells were analyzed using a pre-production model (alpha unit) of the IN Cell Analyzer 3000 (Amersham Biosciences), which is a line scanning, confocal imaging system. The IN Cell Analyzer 3000 was used to quantitate the localization of the arrestin-GFP conjugate for the cells in each well using the Amersham Biosciences granularity analysis GRNO algorithm. This algorithm finds the nucleus of cells and then dilates out a specified distance in which fluorescent spots or “grains” of arrestin-GFP localization are identified based on size and fluorescent intensity. The average of the fluorescent intensity of the identified grains per cell in an acquired image (i.e., Fgrains) was determined for each well on the plates.
The graphs for each compound as well as for the propanolol control are illustrated in FIGS. 7–22.
The curve-fitting program allowed the minimum and maximum values as well as the slope and EC50 values to vary rather than fixing the values to specified or collected values.

[2] = target: HA-tagged human β2-adrenergic receptor (β2AR) (Homo sapiens, UniProt P07550); test: arrestin-GFP localization (Fgrains) assay in U20S-β2AR/ArrGFP cells, isoproterenol stimulated; settings: 100 nM isoproterenol
Experimental: Each of the fifteen compounds was separately screened for GPCR desensitization inhibitory activity against HA-tagged human β2-adrenergic receptor (β2AR) and against human vasopressin V2 receptor (V2R). In addition, the effects of temperature and carbon dioxide (CO2) were evaluated with respect to each compound.

β2AR and V2R = settings: inhibitory activity shown for both β2AR and V2R
Text: Each of the fifteen compounds was separately screened for GPCR desensitization inhibitory activity against HA-tagged human β2-adrenergic receptor (β2AR) and against human vasopressin V2 receptor (V2R).
As indicated by the Fgrains values for the cells in the Basal and Stimulated control wells, the Fgrains value determined by the IN Cell Analyzer 3000 in this example was functionally a measure of the average extent of desensitization in the cells in each well.

[3] = target: HA-tagged human β2-adrenergic receptor (human) (UniProt P07550)
[4] = V2R CO2 plate: 37° C., 5% CO2/95% O2
[5] = V2R RT plate: room temperature, atmospheric CO2
[6] = B2AR CO2 plate: 37° C., 5% CO2/95% O2
[7] = B2AR RT plate: room temperature, atmospheric CO2

Molecule	Max Rsp (change between fitted maximum and fitted minimum Fgrains) [1, 4]	Min (fitted minimum Fgrains) [1, 4]	slope of concentration-response curve [1, 4]	Max Rsp (change between fitted maximum and fitted minimum Fgrains) [1, 5]	Min (fitted minimum Fgrains) [1, 5]	slope of concentration-response curve [1, 5]	Max Rsp (change between fitted maximum and fitted minimum Fgrains) [2, 6]	Min (fitted minimum Fgrains) [2, 6]	slope of concentration-response curve [2, 6]	Max Rsp (change between fitted maximum and fitted minimum Fgrains) [2, 7]	Min (fitted minimum Fgrains) [2, 7]	slope of concentration-response curve [2, 7]	indication of non-receptor-specific GPCR desensitization inhibitory activity (β2AR and V2R)	other results
C[n+]1cc2c3c(ccc2c2ccc4cc5c(cc4c21)OCO5)OCO3 [Sanguinarine Chloride (S5890), Sanguinarine Chloride]	546	27	2.1	533	27	2.0	312	108	3.3	340	61	1.3	non-receptor-specific GPCR desensitization inhibitory activity	EC50 ([2]; EC50, B2AR CO2 plate: 37° C., 5% CO2/95% O2): 7 µM; EC50 ([2]; EC50, B2AR RT plate: room temperature, atmospheric CO2): 7.7 µM
Bisindolylmaleimide VI	499	94	0.8	696	−118	1.2	270	170	2.4	210	213	4.4	non-receptor-specific GPCR desensitization inhibitory activity	EC50 [1, 4]: 24.6 µM; pEC50 [1, 4]: 4.6; EC50 [1, 5]: 18.3 µM; pEC50 [1, 5]: 4.7; EC50 [2, 6]: 12.7 µM; pEC50 [2, 6]: 4.9; EC50 [2, 7]: 9 µM; pEC50 [2, 7]: 5.0
arrestin-GFP conjugate of the Renilla reniformis green fluorescent protein fused in frame to the carboxyl terminus of rat β-arrestin2 (from UniProt P29067)														Fgrains (average fluorescent intensity of identified grains of arrestin-GFP localization per cell), Stimulated against Basal control wells, B2AR CO2 plate [3]: 431 Fgrains

— patent US7163800B2, “Methods of screening compositions for G protein-coupled receptor desensitization inhibitory activity” (Molecular Devices Corporation, priority 2000, dated 2007)
